Measurements reported in patent publication US12590094B2, “Compounds for the treatment of neurodegenerative and metabolic disorders” (UNIVERSITY OF FLORIDA RESEARCH FOUNDATION, INCORPORATED, priority 2019, dated 2026).
Several values for one entry are separate records, joined by “and”; a condition that tells them apart may be missing. Identical values can stand only once. Like-named read-outs stand apart in the source and are kept apart here.

Legend:
[1] = tested on: Cells exposed to TPrP; details: for EC50: read-out: Viability EC50
[2] = tested on: PK1 neuroblastoma cells treated with TPrP; assay: cells; assay type: cell-based; details: Neuroblastoma cell, read-out: Viability EC50
[3] = tested on: PK1 neuroblastoma cells treated with TPrP; assay: cells; assay type: cell-based; details: Neuroblastoma cell, read-out: NAD EC50
[4] = tested on: Murine stem-cell derived neurons; assay: Cellular PD/synucleinopathy model, PFFs-seeded murine neurons, neurite length; assay type: cell-based; details: FIG. 14
Description: Murine stem-cell derived neurons (8 days post-differentiation) were seeded with PFFs (A, B: 4 μg/ml; C, D: 3 μg/ml) and treated with the test compounds at the dose indicated, or with the vehicle DMSO, during the last 2 days of differentiation. Control cells were not PFFs-seeded. Cells were photographed by phase contrast microscopy. Neurite length was quantified using the NeuronJ plugin of ImageJ (NIH), statistical analysis was done in pairs by comparing compound-treated cells with the DMSO control (student's t-test, Prism8). Mean values and SEMs of 4 fields per each condition are shown. Each field contained approximately 50 to 100 neurons. Images shown correspond to a representative area of one field. ****P<0.0001; ***P<0.001; **P<0.01; *P<0.05; ns=not significant.

[5] = target: T1, NAMPT (Homo sapiens, UniProt P43490); assay: Colorimetric NAMPT activity assay (Abcam, ab221819); assay type: biochemical; details: tested at 5 μM or 20 μM
T1 construct: purchased Abcam ab221819
Description: Compounds were tested in a colorimetric NAMPT activity assay (Abcam, ab221819). Each data point represents a duplicate sample. […] Compounds were tested at 5 μM (A) or 20 μM (B).

T1 sequence (P43490 whole entry): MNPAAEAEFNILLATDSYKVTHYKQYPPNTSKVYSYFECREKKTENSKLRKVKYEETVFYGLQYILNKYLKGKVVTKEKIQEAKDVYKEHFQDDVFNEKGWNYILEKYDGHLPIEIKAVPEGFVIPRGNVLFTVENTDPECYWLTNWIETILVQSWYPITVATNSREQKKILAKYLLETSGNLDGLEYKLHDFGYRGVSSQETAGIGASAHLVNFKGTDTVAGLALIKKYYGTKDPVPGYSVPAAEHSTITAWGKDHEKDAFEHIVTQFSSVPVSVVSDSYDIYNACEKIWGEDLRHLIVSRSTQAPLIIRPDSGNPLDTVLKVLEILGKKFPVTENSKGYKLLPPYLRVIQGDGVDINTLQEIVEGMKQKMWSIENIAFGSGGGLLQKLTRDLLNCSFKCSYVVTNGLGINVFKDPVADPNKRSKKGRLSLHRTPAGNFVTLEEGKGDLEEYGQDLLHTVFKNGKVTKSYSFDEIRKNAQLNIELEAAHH

| Structure (SMILES) | EC50 [2] [nM] | EC50 [3] [nM] | further results |
| --- | --- | --- | --- |
| Cc1ccc(-c2cc(C(F)F)n3ncc(C(=O)NCCCn4ccnc4)c3n2)cc1 [SR-024088] |  |  | Viability EC50: % effective ([1]; at 1 nM): >80% effective at 1 nM |
| Cc1ccc(-c2nnc3c4ccccc4c(C)nn23)cc1S(=O)(=O)NC(C)(C)CO [SR1-115259] | 5.1 | 167 | loss of neurites induced by PFFs exposure [4]: prevent loss of neurites; Activation of NAMPT [5]: not |
| O=C(NCCCn1ccnc1)c1cnn2c(C(F)F)cc(-c3ccccc3)nc12 [SR0-24084] |  |  | Viability EC50: % effective ([1]; at 1 nM): ~40% effective at 1 nM, fully effective at 10 nM |
| COc1cc2cc3c4cc(OC)c(OC)cc4cc[n+]3c(C)c2cc1OC [SR5-2641, coralyne chloride] | 507 | 671 |  |
| Cc1ccc(-c2nnc3c4ccccc4c(C)nn23)cc1S(=O)(=O)N1CCN(C)CC1 [SR1-115275] | 839 | 2600 |  |
| Cc1nc(C)c(-c2csc(Nc3ccc(S(N)(=O)=O)cc3)n2)s1 [SR1-477302] | 14 | 103 | EC50 [1]: 18 nM and 30 nM |
| COc1ccc(-c2cc(C(F)(F)F)n3ncc(C(=O)NCCCn4ccnc4)c3n2)cc1 [SR3-5230] |  |  | EC50 [1]: > 32 nM |
| COc1ccc(-c2cc(C(F)(F)F)n3ncc(C(=O)NCCCn4ccnc4C)c3n2)cc1 [SR0-31107] |  |  | EC50 [1]: 2 nM |
| CCc1c(C(=O)NCCN)ncc2[nH]c3cc(OC)c(OC)cc3c12 [DMCM-8124] |  |  | EC50 [1]: ~1800 nM |
| NS(=O)(=O)c1ccc(Nc2nc(-c3ccc(F)cc3)cs2)cc1 [SR1-742242] | 197 | 946 |  |
| COc1ccc(-c2oc3cc(OC)c(OC)c(OC)c3c(=O)c2OC)cc1OC [SR5-2644, 2-(3,4-dimethoxyphenyl)-3,5,6,7-tetramethoxy-4H-chromen-4-one] | 620 | 1200 |  |
| COc1ccc(-c2cc(C(F)(F)F)n3ncc(C(=O)NCCCn4ccnc4)c3n2)cc1 [SR3-5315] |  |  | EC50 [1]: > 16 nM |
| Cc1ccc(-c2nnc3c4ccccc4c(C)nn23)cc1S(=O)(=O)NCCO [SR1-87813] | 156 | 733 |  |
| NS(=O)(=O)c1ccc(Nc2nc(-c3cccnc3)cs2)cc1 [SR1-809850] | 88 | 337 |  |
| c1ccc2c(c1)OCC(CNc1nnc(Cc3ccncc3)c3ccccc13)O2 (centres unmarked) [SR1-134003] | 200 | 1200 |  |
| CN1C[C@H](CO)C=C2c3cccc4[nH]cc(c34)C[C@H]21 [SR1-758923, lysergol] | 1900 | > 15000 |  |
| CCc1c(C(=O)NCCN)ncc2[nH]c3cc(OC)c(OC)cc3c12 [DMCM-8130] |  |  | EC50 [1]: ~600 nM |
| COc1ccc2c3c([nH]c2c1)C(C)=NCC3 [SR1-721899, harmaline] | 3800 | 14000 |  |
| COc1ccc(-c2cc(=O)c3c(OC)c(OC)c(OC)cc3o2)cc1OC [SR-05000002257, 2-(3,4-dimethoxyphenyl)-5,6,7-trimethoxy-4H-chromen-4-one] | 323 | 3600 |  |
| COc1cc2c(cc1OC)[C@H]1[C@@H](C)c3ccc(OC)c(OC)c3CN1CC2 [SR5-2225, corydaline] | 1300 | 2000 |  |
| CNC(=O)c1cc2c(cn1)[nH]c1ccccc12 [SR1-75632, N-methyl-9H-pyrido[3,4-b]indole-3-carboxamide] | 3200 | > 15000 |  |
| COc1ccc2c(c1)[nH]c1c(C)nccc12 [SR5-1527, methoxy harman] | 1800 | 14000 |  |
| Cc1nc2sccn2c1-c1csc(Nc2ccc(S(N)(=O)=O)cc2)n1 [SR1-477230] | 47 | 204 |  |
| COc1cc(OC)c2c(=O)cc(-c3ccccc3)oc2c1 [SR1-758978, 5,7-dimethoxy-2-phenyl-4H-chromen-4-one] | 1700 | > 10000 |  |
| O=C(NCCCn1ccnc1)c1cnn2c(C(F)(F)F)cc(-c3ccc(Br)cc3)nc12 [SR0-24082] |  |  | Viability EC50: % effective [1]: ~40% effective at nM, fully effective at 10 nM |
| COc1ccc2c(c1O)-c1c(OC)c(O)cc3c1[C@H](C2)N(C)CC3 [SR1-841246, N-Methyl lindcarpine] | 4400 | > 15000 |  |
